From US20230391739A1, “ARYL DERIVATIVES FOR TREATING TRPM3 MEDIATED DISORDERS” (Katholieke Universiteit Leuven, priority 2020, published 2023)

Molecular target: T1, mouse TRPM3α2 (mTRPM3) ion channel (Mus musculus, UniProt J9SQF3)
T1 construct: expressed in transfected cells; host or cells: flip-in HEK293
Experiment: TRPM3 ion channel driven Ca2+ uptake, Fluo-4 AM assay, PS-stimulated (mTRPM3)
Format: cell-based
Conditions: TRPM3 overexpressing flip-in HEK293 cells stimulated with Pregnenolone sulfate (PS) 50 μM, activity ranges A, B, C
Description: Monitoring the TRPM3 Ion Channel Driven Ca^2+ Uptake.
In order to monitor the inhibition of the mouse TRPM3α2 (mTRPM3) ion channel by the compounds of the invention, a cellular system making use of an mTRPM3alpha2 or hTRPM3 overexpressing cell line (flip-in HEK293) was used. The TRPM3 channel was stimulated/opened with Pregnenolone sulfate (PS) (50 μM) which results in Ca^2+ influx.
For mTRPM3, the intracellular Ca^2+ was measured with a Calcium responsive dye, Fluor-4 AM ester (Invitrogen). Cells were cultured until a confluence of 80-90%, washed with Versene (Invitrogen) and detached from the surface by a short incubation with 0.05% Trypsin (Invitrogen). The trypsination process was stopped by the addition of complete cell culture medium (DMEM, glutamax, 10% FCS, NEAA, Pen-Strep). Cells were collected and resuspended in Krebs buffer without Calcium at RT.
Prior the cell seeding (±2000 cells/well into a black, 384 well plate (Greiner)) the diluted compound was added in the assay plate, together with the PS dissolved in Krebs buffer containing Calcium. […] Directly after cell addition the plates were read on an Envision fluorescence reader (Perkin Elmer) by an Excitation of 485 nm and emission at 535 nm.
Channel inhibition was calculated compared to a non-PS stimulated control versus a condition stimulated with PS (50 μM) with vehicle. The ability of the compounds of the invention to inhibit this activity was determined as: Percentage inhibition=[1−((RFU determined for sample with test compound present−RFU determined for sample with positive control inhibitor) divided by (RFU determined in the presence of vehicle−RFU determined for sample with positive control inhibitor))]*100.
The activities of the Example compounds tested are depicted in the table below.

T1 sequence (J9SQF3 1-1709 isoform J9SQF3-12): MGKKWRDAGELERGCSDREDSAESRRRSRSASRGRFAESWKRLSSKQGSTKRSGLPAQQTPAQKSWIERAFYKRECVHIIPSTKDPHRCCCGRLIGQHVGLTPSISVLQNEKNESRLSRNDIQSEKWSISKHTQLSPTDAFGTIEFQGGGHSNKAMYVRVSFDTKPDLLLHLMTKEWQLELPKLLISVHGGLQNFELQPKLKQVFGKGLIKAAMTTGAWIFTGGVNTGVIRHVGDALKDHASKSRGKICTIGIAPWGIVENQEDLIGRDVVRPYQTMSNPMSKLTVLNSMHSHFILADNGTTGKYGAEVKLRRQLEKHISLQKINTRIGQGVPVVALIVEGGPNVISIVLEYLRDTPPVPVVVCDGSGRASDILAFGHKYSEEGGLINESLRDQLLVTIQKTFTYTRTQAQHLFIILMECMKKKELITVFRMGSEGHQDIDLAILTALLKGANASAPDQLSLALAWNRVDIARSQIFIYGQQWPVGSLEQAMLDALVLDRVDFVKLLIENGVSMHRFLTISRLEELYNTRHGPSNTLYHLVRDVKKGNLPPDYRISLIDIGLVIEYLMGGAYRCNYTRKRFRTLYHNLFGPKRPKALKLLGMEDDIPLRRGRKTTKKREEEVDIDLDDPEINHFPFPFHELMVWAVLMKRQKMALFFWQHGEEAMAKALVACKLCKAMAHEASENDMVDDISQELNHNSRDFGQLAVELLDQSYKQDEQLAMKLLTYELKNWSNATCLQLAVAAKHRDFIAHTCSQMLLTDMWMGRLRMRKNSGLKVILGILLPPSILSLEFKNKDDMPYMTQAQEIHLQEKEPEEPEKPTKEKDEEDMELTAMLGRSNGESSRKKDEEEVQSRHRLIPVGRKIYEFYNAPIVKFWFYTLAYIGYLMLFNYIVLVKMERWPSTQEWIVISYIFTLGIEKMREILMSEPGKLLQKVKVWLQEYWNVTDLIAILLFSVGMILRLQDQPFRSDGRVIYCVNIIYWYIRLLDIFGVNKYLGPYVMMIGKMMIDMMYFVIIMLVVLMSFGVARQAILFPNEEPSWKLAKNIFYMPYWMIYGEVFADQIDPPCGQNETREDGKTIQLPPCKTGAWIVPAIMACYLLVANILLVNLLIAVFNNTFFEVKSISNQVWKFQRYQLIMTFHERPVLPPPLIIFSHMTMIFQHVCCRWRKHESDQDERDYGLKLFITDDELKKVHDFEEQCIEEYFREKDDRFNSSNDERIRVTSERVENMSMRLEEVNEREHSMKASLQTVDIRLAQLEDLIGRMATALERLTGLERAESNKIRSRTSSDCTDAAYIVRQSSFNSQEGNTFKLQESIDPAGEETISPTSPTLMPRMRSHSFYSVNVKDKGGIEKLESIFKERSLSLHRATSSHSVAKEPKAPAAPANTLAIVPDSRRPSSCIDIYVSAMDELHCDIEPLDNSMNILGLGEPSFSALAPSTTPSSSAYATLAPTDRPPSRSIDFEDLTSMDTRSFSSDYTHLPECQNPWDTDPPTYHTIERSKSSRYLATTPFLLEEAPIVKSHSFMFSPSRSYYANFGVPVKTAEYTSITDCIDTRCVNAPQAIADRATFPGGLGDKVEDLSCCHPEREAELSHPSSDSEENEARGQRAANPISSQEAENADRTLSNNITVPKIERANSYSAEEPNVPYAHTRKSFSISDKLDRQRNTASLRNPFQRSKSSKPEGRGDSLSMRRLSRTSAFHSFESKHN

For `Cc1oc2ccc(OCc3ccccc3)cc2c1C(=O)NC1CNCC1F` (racemic) [Cpd 093, rac-5-(benzyloxy)-N-(trans-4-fluoropyrrolidin-3-yl)-2-methylbenzofuran-3-carboxamide], the IC50 was under 1 µM.

With `Cc1oc2ccc(OCc3ccccc3)cc2c1C(=O)NC1CNCC1F` (racemic) [Cpd 094, rac-5-(benzyloxy)-N-(cis-4-fluoropyrrolidin-3-yl)-2-methylbenzofuran-3-carboxamide] the IC50 was under 1 µM.

With `Cc1oc2ccc(OCc3ccccc3)cc2c1C(=O)NC1CCNC(C)C1` (racemic) [Cpd 114, rac-5-(benzyloxy)-2-methyl-N-(trans-2-methylpiperidin-4-yl)benzofuran-3-carboxamide] the IC50 was under 1 µM.

`Cc1oc2ccc(OCc3ccccc3)cc2c1C(=O)NC1CCNC(C)C1` (racemic) [Cpd 115, rac-5-(benzyloxy)-2-methyl-N-(cis-2-methylpiperidin-4-yl)benzofuran-3-carboxamide] gave an IC50 of under 1 µM.

With `Cc1oc2ccc(OC(C)c3ccccc3C(F)(F)F)cc2c1C(=O)N[C@H]1CCNC1` (mixture of isomers) [Cpd 220, rac-2-methyl-N—((R)-pyrrolidin-3-yl)-5-(1-(2-(trifluoromethyl)phenyl)ethoxy)benzofuran-3-carboxamide] the IC50 was under 1 µM.

With `CCC(Oc1ccc2oc(C)c(C(=O)N[C@H]3CCNC3)c2c1)c1ccccc1C(F)(F)F` (mixture of isomers) [Cpd 231, rac-2-methyl-N—((R)-pyrrolidin-3-yl)-5-(1-(2-(trifluoromethyl)phenyl)propoxy)benzofuran-3-carboxamide] the IC50 was under 1 µM.

For `Cc1oc2ccc(OCc3ccccc3)cc2c1C(=O)N[C@@H]1CCN(C(=O)OC(C)(C)C)[C@@H](C)C1` (racemic) [Cpd 251, tert-butyl trans-4-(5-(benzyloxy)-2-methylbenzofuran-3-carboxamido)-2-methylpiperidine-1-carboxylate], the IC50 was under 1 µM.

Molecule `Cc1oc2ccc(OC(C)c3ccccc3C(F)(F)F)cc2c1C(=O)N[C@H]1CCN(C(=O)OC(C)(C)C)C1` (mixture of isomers) [Cpd 267, rac-tert-butyl (3R)-3-(2-methyl-5-(1-(2-(trifluoromethyl)phenyl)ethoxy)benzofuran-3-carboxamido)pyrrolidine-1-carboxylate] has an IC50 of over 20 µM.

`Cc1oc2ccc(OCc3ccccc3F)cc2c1C(=O)N[C@@H]1COC[C@H]1O` (relative stereo) [Cpd 330-En 2] showed an IC50 of under 1 µM.

With `Cc1oc2ccc(OCc3ccccc3)cc2c1C(=O)NC1CNCCC1F` (single isomer, unassigned) [Cpd 130-Dia 1] the IC50 was under 1 µM.

With `Cc1oc2ccc(OCc3ccccc3)cc2c1C(=O)NC1CNCCC1F` (single isomer, unassigned) [Cpd 130-Dia 2] the IC50 was under 1 µM.

`Cc1oc2ccc(OCc3ccccc3)cc2c1C(=O)NC1CCN2CCCC12` (single isomer, unassigned) [Cpd 144-Dia 1, 5-(benzyloxy)-N-(hexahydro-1H-pyrrolizin-1-yl)-2-methylbenzofuran-3-carboxamide] gave an IC50 of under 1 µM.

Molecule `Cc1oc2ccc(OCc3ccccc3)cc2c1C(=O)NC1CCN2CCCC12` (single isomer, unassigned) [Cpd 144-Dia 2, 5-(benzyloxy)-N-(hexahydro-1H-pyrrolizin-1-yl)-2-methylbenzofuran-3-carboxamide] has an IC50 of under 1 µM.

Molecule `Cc1oc2ccc(OCc3ccccc3)cc2c1C(=O)NC1CN(C(=O)OC(C)(C)C)CCC1F` (single isomer, unassigned) [Cpd 255-Dia 1, tert-butyl 3-(5-(benzyloxy)-2-methylbenzofuran-3-carboxamido)-4-fluoropiperidine-1-carboxylate] has an IC50 of under 1 µM.

For `Cc1oc2ccc(OCc3ccccc3)c(C#N)c2c1C(=O)NC1CNCC1(F)F` (single isomer, unassigned) [Cpd 297-En 1, 5-(benzyloxy)-4-cyano-N-(4,4-difluoropyrrolidin-3-yl)-2-methylbenzofuran-3-carboxamide], the IC50 was under 1 µM.
